Data from publication PMC11868595, “Safety, pharmacokinetics and efficacy of HA121-28 in patients with advanced solid tumors and RET fusion-positive non-small-cell lung cancer: a multicenter, open-label, single-arm phase 1/2 trial” (Signal Transduction and Targeted Therapy, 2025).

System: patients with advanced solid tumors
Assay: Phase 1 trial: adverse events (CTCAE), DLT and MTD
Format: in vivo, human
Method: The phase 1 trial was a two-part, multicenter, open-label, nonrandomized study to evaluate the safety and preliminary efficacy of HA121-28.
Safety, tolerability, and PK of HA121-28 was assessed in dose-escalation part. The single-patient accelerated titration was carried out at 25 mg and 50 mg; then, the dose escalation proceeded according to a “3 + 3” design in dose range of 100 to 800 mg. Escalation to a higher dose level was considered by the satisfactory review of safety results from the previous lower dose during the first cycle.
The dose-expansion part aims to further access the safety and efficacy of HA121-28 at the selected doses based on data from the dose-escalation part. The RP2D was determined by investigators in view of a thorough review of safety, PK, and efficacy results.
In phase 1 trial, during the dose-escalation part, patients first administered HA121-28 in a single ascending dose under the fasted state, then followed up for seven days. Then, patients received ascending doses of HA121-28 (q.d.) on a 21-day on and 7-day off treatment scheme for a 28-day cycle. For patients deemed beneficial from the treatment by investigators, treatment could remain until disease progression, or they discontinued from the study. In the dose-expansion part of phase 1, as well as phase 2, patients received HA121-28 (q.d.) at the selected doses on a 21-day on and 7-day off treatment scheme until disease progression, or they discontinued from the study.
Treatment-emergent adverse events (TEAEs) were documented during the entire study period. The predefined adverse event of special interest (AESI) was ≥ grade 3 prolonged QT interval. Tumor imaging was performed using contrast-enhanced computed tomography or magnetic resonance imaging at screening, Day 28 of the first cycle, then approximately every eight weeks till the end of the study for phase 1; in phase 2, imaging was scheduled at screening, and every eight weeks during the first 40 weeks, followed by every 12 weeks for the rest of the study period. RECIST 1.1 was used by the independent review committee or investigators for assessment of tumor response. After the original assessment, a repeated assessment was required around four weeks later to confirm a complete or partial response.
The primary endpoints of phase 1 were to investigate the MTD, dose-limiting toxicities, and the incidence and severity of TEAEs. Each TEAE was graded according to the Common Terminology Criteria for Adverse Events (CTCAE, version 5.0) and coded by Medical Dictionary for Regulatory Activities (MedDRA, version 21.0). The secondary endpoints included calculating PK parameters, assessing the ORR and DCR at the recommended dose by investigators as per RECIST 1.1. The exploratory endpoint was PFS.
If grade 2 or higher toxicity related to the study drug occurs in Groups 1 and 2 (as determined by the investigator), dose escalation will proceed using a 3+3 design starting from that dose level. If no DLT is observed at the 800 mg/d dose level after dose escalation, a meeting of investigators will be convened to decide whether to proceed with further dose escalation based on the available PK data, safety, and tolerability information.
5. Definition of DLT and MTD
The following events related to the study drug (including those that are definitely related, highly likely to be related, and possibly related):
(1) Grade 4 hematologic toxicity or grade 3 neutropenia accompanied by a fever of 38.5℃ or higher, or grade 3 thrombocytopenia accompanied by severe bleeding.
(2) Patients who discontinued the medication for more than 7 days due to unresolved toxicity reactions or who discontinued the medication more than twice due to toxicity […]
(3) In the context of supportive treatment, diarrhea of grade 2 lasting more than 7 days, or grade 3 diarrhea lasting more than 3 days.

COc1cc2c(Nc3ccc(Br)cc3F)ncnc2cc1OCCCCN(C)C.Cl.Cl [HA121-28, N-(4-bromo-2-fluorophenyl)-7-(4-(dimethylamino)butoxy)-6-methoxy quinazolin-4-amine dihydrochloride]
incidence of ≥ grade-3 TEAEs (450 mg/day): 36.7% | incidence of ≥ grade-3 TEAEs (600 mg/day): 68.8% | patients with dose-limiting toxicities (800 mg (q.d.), grade-3 decreased appetite, grade-3 prolonged QT interval): two | Serious TEAE: ALT increased (Phase 1, 300 mg (N=4)): 0 No. (%) | Serious TEAE: AST increased (Phase 1, 300 mg (N=4)): 0 No. (%) | Serious TEAE: Abdominal Pain (Phase 1, 300 mg (N=4)): 0 No. (%) | Serious TEAE: Abdominal distension (Phase 1, 300 mg (N=4)): 0 No. (%) | Serious TEAE: Acute cholecystitis (Phase 1, 300 mg (N=4)): 0 No. (%) | Serious TEAE: Acute pancreatitis (Phase 1, 300 mg (N=4)): 0 No. (%) | Serious TEAE: Anal abscess (Phase 1, 300 mg (N=4)): 0 No. (%) | Serious TEAE: Any (Phase 1, 300 mg (N=4)): 1 (25.0) No. (%) | Serious TEAE: Aortic intramural hematoma (Phase 1, 300 mg (N=4)): 1 (25.0) No. (%) | Serious TEAE: Arrhythmia (Phase 1, 300 mg (N=4)): 0 No. (%) | Serious TEAE: Blood bilirubin increased (Phase 1, 300 mg (N=4)): 0 No. (%) | Serious TEAE: Blood creatinine increased (Phase 1, 300 mg (N=4)): 0 No. (%) | Serious TEAE: COVID-19 (Phase 1, 300 mg (N=4)): 0 No. (%) | Serious TEAE: Cardiac tamponade (Phase 1, 300 mg (N=4)): 0 No. (%) | Serious TEAE: Coronary artery atherosclerosis (Phase 1, 300 mg (N=4)): 0 No. (%) | Serious TEAE: Death (Phase 1, 300 mg (N=4)): 0 No. (%) | Serious TEAE: Diarrhea (Phase 1, 300 mg (N=4)): 0 No. (%) | Serious TEAE: Drug eruption (Phase 1, 300 mg (N=4)): 0 No. (%) | Serious TEAE: Dyspnea (Phase 1, 300 mg (N=4)): 0 No. (%) | Serious TEAE: Embolism (Phase 1, 300 mg (N=4)): 0 No. (%) | Serious TEAE: Erythema multiforme (Phase 1, 300 mg (N=4)): 0 No. (%) | Serious TEAE: Headache (Phase 1, 300 mg (N=4)): 0 No. (%) | Serious TEAE: Hemoptysis (Phase 1, 300 mg (N=4)): 0 No. (%) | Serious TEAE: Hydronephrosis (Phase 1, 300 mg (N=4)): 0 No. (%) | Serious TEAE: Hypertension (Phase 1, 300 mg (N=4)): 0 No. (%) | Serious TEAE: Hypoalbuminemia (Phase 1, 300 mg (N=4)): 0 No. (%) | Serious TEAE: Intestinal obstruction (Phase 1, 300 mg (N=4)): 0 No. (%) | Serious TEAE: Intra-abdominal fluid collection (Phase 1, 300 mg (N=4)): 0 No. (%) | Serious TEAE: Intracranial tumor hemorrhage (Phase 1, 300 mg (N=4)): 0 No. (%) | Serious TEAE: Liver injury (Phase 1, 300 mg (N=4)): 0 No. (%) | Serious TEAE: Lung adenocarcinoma (Phase 1, 300 mg (N=4)): 0 No. (%) | Serious TEAE: Malignant neoplasm progression (Phase 1, 300 mg (N=4)): 0 No. (%) | Serious TEAE: Multiple organ dysfunction syndrome (Phase 1, 300 mg (N=4)): 0 No. (%) | Serious TEAE: Nausea (Phase 1, 300 mg (N=4)): 0 No. (%) | Serious TEAE: Nephrolithiasis (Phase 1, 300 mg (N=4)): 0 No. (%) | Serious TEAE: Platelet counts decreased (Phase 1, 300 mg (N=4)): 0 No. (%) | Serious TEAE: Pleural effusion (Phase 1, 300 mg (N=4)): 0 No. (%) | Serious TEAE: Pneumonia (Phase 1, 300 mg (N=4)): 0 No. (%) | Serious TEAE: Pneumonitis (Phase 1, 300 mg (N=4)): 0 No. (%) | Serious TEAE: Prolonged QT interval (Phase 1, 300 mg (N=4)): 0 No. (%) | Serious TEAE: Pulmonary embolism (Phase 1, 300 mg (N=4)): 0 No. (%) | Serious TEAE: Pyrexia (Phase 1, 300 mg (N=4)): 0 No. (%) | Serious TEAE: Rash (Phase 1, 300 mg (N=4)): 0 No. (%) | Serious TEAE: Rectal hemorrhage (Phase 1, 300 mg (N=4)): 0 No. (%) | Serious TEAE: Respiratory failure (Phase 1, 300 mg (N=4)): 0 No. (%) | Serious TEAE: Seizure (Phase 1, 300 mg (N=4)): 0 No. (%) | Serious TEAE: Septic shock (Phase 1, 300 mg (N=4)): 0 No. (%) | Serious TEAE: Sudden cardiac arrest (Phase 1, 300 mg (N=4)): 0 No. (%) | Serious TEAE: Sudden death (Phase 1, 300 mg (N=4)): 0 No. (%) | Serious TEAE: Upper respiratory tract infection (Phase 1, 300 mg (N=4)): 0 No. (%) | Serious TEAE: Ventricular tachycardia (Phase 1, 300 mg (N=4)): 0 No. (%) | Serious TEAE: Vomiting (Phase 1, 300 mg (N=4)): 0 No. (%) | Serious TEAE: Weight loss (Phase 1, 300 mg (N=4)): 0 No. (%) | Serious TRAE: ALT increased (Phase 1, 300 mg (N=4)): 0 No. (%) | Serious TRAE: AST increased (Phase 1, 300 mg (N=4)): 0 No. (%) | Serious TRAE: Abdominal Pain (Phase 1, 300 mg (N=4)): 0 No. (%) | Serious TRAE: Abdominal distension (Phase 1, 300 mg (N=4)): 0 No. (%) | Serious TRAE: Acute cholecystitis (Phase 1, 300 mg (N=4)): 0 No. (%) | Serious TRAE: Acute pancreatitis (Phase 1, 300 mg (N=4)): 0 No. (%) | Serious TRAE: Anal abscess (Phase 1, 300 mg (N=4)): 0 No. (%) | Serious TRAE: Any (Phase 1, 300 mg (N=4)): 0 No. (%) | Serious TRAE: Aortic intramural hematoma (Phase 1, 300 mg (N=4)): 0 No. (%) | Serious TRAE: Arrhythmia (Phase 1, 300 mg (N=4)): 0 No. (%) | Serious TRAE: Blood bilirubin increased (Phase 1, 300 mg (N=4)): 0 No. (%) | Serious TRAE: Blood creatinine increased (Phase 1, 300 mg (N=4)): 0 No. (%) | Serious TRAE: COVID-19 (Phase 1, 300 mg (N=4)): 0 No. (%) | Serious TRAE: Cardiac tamponade (Phase 1, 300 mg (N=4)): 0 No. (%) | Serious TRAE: Coronary artery atherosclerosis (Phase 1, 300 mg (N=4)): 0 No. (%) | Serious TRAE: Death (Phase 1, 300 mg (N=4)): 0 No. (%) | Serious TRAE: Diarrhea (Phase 1, 300 mg (N=4)): 0 No. (%) | Serious TRAE: Drug eruption (Phase 1, 300 mg (N=4)): 0 No. (%) | Serious TRAE: Dyspnea (Phase 1, 300 mg (N=4)): 0 No. (%) | Serious TRAE: Embolism (Phase 1, 300 mg (N=4)): 0 No. (%) | Serious TRAE: Erythema multiforme (Phase 1, 300 mg (N=4)): 0 No. (%) | Serious TRAE: Headache (Phase 1, 300 mg (N=4)): 0 No. (%) | Serious TRAE: Hemoptysis (Phase 1, 300 mg (N=4)): 0 No. (%) | Serious TRAE: Hydronephrosis (Phase 1, 300 mg (N=4)): 0 No. (%) | Serious TRAE: Hypertension (Phase 1, 300 mg (N=4)): 0 No. (%) | Serious TRAE: Hypoalbuminemia (Phase 1, 300 mg (N=4)): 0 No. (%) | Serious TRAE: Intestinal obstruction (Phase 1, 300 mg (N=4)): 0 No. (%) | Serious TRAE: Intra-abdominal fluid collection (Phase 1, 300 mg (N=4)): 0 No. (%) | Serious TRAE: Intracranial tumor hemorrhage (Phase 1, 300 mg (N=4)): 0 No. (%) | Serious TRAE: Liver injury (Phase 1, 300 mg (N=4)): 0 No. (%) | Serious TRAE: Lung adenocarcinoma (Phase 1, 300 mg (N=4)): 0 No. (%) | Serious TRAE: Malignant neoplasm progression (Phase 1, 300 mg (N=4)): 0 No. (%) | Serious TRAE: Multiple organ dysfunction syndrome (Phase 1, 300 mg (N=4)): 0 No. (%) | Serious TRAE: Nausea (Phase 1, 300 mg (N=4)): 0 No. (%) | Serious TRAE: Nephrolithiasis (Phase 1, 300 mg (N=4)): 0 No. (%) | Serious TRAE: Platelet counts decreased (Phase 1, 300 mg (N=4)): 0 No. (%) | Serious TRAE: Pleural effusion (Phase 1, 300 mg (N=4)): 0 No. (%) | Serious TRAE: Pneumonia (Phase 1, 300 mg (N=4)): 0 No. (%) | Serious TRAE: Pneumonitis (Phase 1, 300 mg (N=4)): 0 No. (%) | Serious TRAE: Prolonged QT interval (Phase 1, 300 mg (N=4)): 0 No. (%) | Serious TRAE: Pulmonary embolism (Phase 1, 300 mg (N=4)): 0 No. (%) | Serious TRAE: Pyrexia (Phase 1, 300 mg (N=4)): 0 No. (%) | Serious TRAE: Rash (Phase 1, 300 mg (N=4)): 0 No. (%) | Serious TRAE: Rectal hemorrhage (Phase 1, 300 mg (N=4)): 0 No. (%) | Serious TRAE: Respiratory failure (Phase 1, 300 mg (N=4)): 0 No. (%) | Serious TRAE: Seizure (Phase 1, 300 mg (N=4)): 0 No. (%) | Serious TRAE: Septic shock (Phase 1, 300 mg (N=4)): 0 No. (%) | Serious TRAE: Sudden cardiac arrest (Phase 1, 300 mg (N=4)): 0 No. (%) | Serious TRAE: Sudden death (Phase 1, 300 mg (N=4)): 0 No. (%) | Serious TRAE: Upper respiratory tract infection (Phase 1, 300 mg (N=4)): 0 No. (%) | Serious TRAE: Ventricular tachycardia (Phase 1, 300 mg (N=4)): 0 No. (%) | Serious TRAE: Vomiting (Phase 1, 300 mg (N=4)): 0 No. (%) | Serious TRAE: Weight loss (Phase 1, 300 mg (N=4)): 0 No. (%) | Serious TEAE: ALT increased (Phase 1, 450 mg (N=79)): 0 No. (%) | Serious TEAE: AST increased (Phase 1, 450 mg (N=79)): 0 No. (%) | Serious TEAE: Abdominal Pain (Phase 1, 450 mg (N=79)): 0 No. (%) | Serious TEAE: Abdominal distension (Phase 1, 450 mg (N=79)): 0 No. (%) | Serious TEAE: Acute cholecystitis (Phase 1, 450 mg (N=79)): 1 (1.3) No. (%)
